Results from US10604489B2, “Compounds for the treatment of pain” (priority 2018, dated 2020).

What was measured:
[1] = target: μ-receptor (Homo sapiens (Human), UniProt P35372); test: Alternate receptor binding assay, competitive displacement of [3H]DAMGO; details: alternate assay: 0.8 nM [3H]DAMGO, 5 mM MgCl2, CHO cell membrane protein, 120 min
[2] = target: human μ opioid receptor (Homo sapiens (Human), UniProt P35372); test: Alternate functional activity ([35S]GTPγS binding) assay, SPA beads; format: biochemical; details: alternate assay: [35S]GTPγS 0.020 nM, CHO cell membranes with WGA PVT SPA beads
[3] = test system: Male Sprague-Dawley rats; details: maximum pCO2 within 2 hours of administration, subcutaneous, rat
[4] = test system: Male Sprague-Dawley rats; test: animal or person; format: in vivo, rat; details: sc; minimum dose at which maximal reversal of hind paw weight bearing (50±0.5%) was achieved; subcutaneous administration; rat; read-out: MEMD SC CFA

For `CCOC1(c2cccc(C(N)=O)c2)C2CCCC1CNC2.Cl` [Compound 160, 3-((1R,5S,9r)-9-ethoxy-3-azabicyclo[3.3.1]nonan-9-yl)benzamide], the Ki [1] was 1 to 5 nM, the EC50 [2] was 10 to 75 nM and the “<60 mmHg @ 10X CFA MEMD” value ([3]; dose 10× CFA MEMD) was “+ (resulted in a maximum pCO2 value of less than 60 mmHg within 2 hours of administration)”. The “<60 mmHg @ 100X CFA MEMD” value ([3]; dose 100× CFA MEMD) was “+ (resulted in a maximum pCO2 value of less than 60 mmHg within 2 hours of administration)” and the minimal effective dose [4] was 0.1 mg/kg.
